Common to all, as to assay type: cell-based
For assay [1], the system named is p70S6K, AURKA, MET, S6RP and EGFR protein levels. As to the kind of experiment: Western blot time course of protein reduction in A549 and H1650 cells. The settings on record: 2 μM. The procedure: (§1) Cells were washed once with PBS and frozen in RIPA lysis buffer containing protease and phosphatase inhibitors (Sigma-Aldrich) for 30 min. After sonication and centrifugation, the total protein concentration was determined by protein assay using Bio-Rad concentrated dye reagent (Bio-Rad). Equal amounts of protein ([…]) from each sample were separated by SDS-PAGE and electrotransferred to nitrocellulose membranes (GE Healthcare). Detection was performed on the membrane with a 1:1000 dilution of specific primary antibody followed by incubation with a 1:2000 dilution of the HRP conjugated secondary antibody. Finally, immunoreactivity is detected with a chemiluminescent substrate (Clarity Western ECL substrate; Bio-Rad). EGFR (#4267S), MET (#8198S), p-Akt (#9271L), akt (#9272S), p-mTOR (#5536S), mTOR (#2983S), p-p70S6K (#9234S), p70S6K (#2708S), p-S6RP (#4857S), S6RP (#2217S), p-4E-BP1 (#9455S) antibodies. 4E-BP1 (#9644S), p53 (#2527S), p21 waf1/Cip1 (#2947S), survivin (#2808S), cyclin B1 (#12231S), cyclin D3 (#2936S) and GAPDH (#2118S) were purchased from Cell Signaling Technology. Aurora A (#ab13824) and PLK1 (#ab189139) antibodies were from Abcam.
In FIGS. 7, A549 and H1650 cells were treated with ATA (2 μM) for 6, 12, 24, 36, and 48 h, and the protein levels of p70S6K, AURKA, MET, S6RP, and EGFR at each time point were determined by Western blot analysis as shown in (A), and the quantified protein levels are shown in (B). […] (D) is protein levels of p70S6K, p-p70S6K, S6RP, p-S6RP, p21, cyclin D3, AURKA, PLK1, cyclin B1, survivin, EGFR, and MET determined by Western blot analysis for A549 and H1650 cells treated with 10 nM p70S6K siRNA and siRNA negative control for 48 h. (E) is cell viability measured by MTT test for A549 and H1650 cells treated with 10 nM p70S6K siRNA and the negative control siRNA for 48 h. ****P<0.0001 was based on a one-way analysis of variance followed by Tukey's multiple comparison test. (F) It is protein levels of p21, cyclin D3, AURKA, PLK1, cyclin B1, survivin, EGFR, and MET determined by Western blot analysis for A549 and H1650 cells treated with LY294002 (2 μM), PF-4708671 (2 μM), rapamycin (2 μM) and ATA (2 μM) for 48 h. (G) is expression levels of EGFR, MET, p-p70S6K, p70S6K, p-S6RP, S6RP, p21, cyclin D3, AURKA, PLK1, cyclin B1 and survivin in fibroblast HDF, A549 and H1650 cells determined by Western blot analysis, respectively. Statistical data are expressed as the mean SD of three independent experiments.
For orientation: A western blot detects proteins with antibodies after separation by electrophoresis.

Assay [2] relates to EGFR. The assay can be described thus: Western blot, EGFR protein levels in drug-resistant NSCLC cells. As for the experimental part: as §1, with “EGFR (#4267S), MET (#8198S), p-Akt (#9271L), akt (#9272S), p-mTOR (#5536S), mTOR (#2983S), p-p70S6K (#9234S), p70S6K (#2708S), p-S6RP (#4857S), S6RP (#2217S), p-4E-BP1 (#9455S) antibodies. 4E-BP1 (#9644S), p53 (#2527S), p21 waf1/Cip1 (#2947S), survivin (#2808S), cyclin B1 (#12231S), cyclin D3 (#2936S) and GAPDH (#2118S) were purchased from Cell Signaling Technology.” left out

In assay [3] the test system is H358 cells. As to the kind of experiment: MTT cell viability assay, H358 cells. As for the experimental part: Cells were seeded at a density of 3×10^3 per well in 96-well plates, allowed to attach overnight, and treated with various concentrations of agent. After 72 h of treatment, 10 μL of MTT solution (5 mg/mL) was added to each well and cultured in the plate for 4 h. The crystallized formazan was dissolved in 100 μL of 10% (w/v) SDS and 0.01 mol/L HCl solution for 24 h, and then the value was read by spectrophotometry at 595 nm using a microplate reader.
(Tetrazolium assays rely on reduction of a dye to a coloured formazan, in cell work by metabolically active cells.)

With `CC(=O)Oc1c(OC(C)=O)c2c(C)coc2c2ccc3c(c12)CCCC3(C)C` [ATA, acetyltanshinone IIA], in assay [1], the “time at which AURKA protein decreased” value amounted to 12 h, the “time at which EGFR protein decreased” value was 48 to 72 h, the “time at which MET protein decreased” value turned out to be 24 h and the “time at which S6RP protein decreased” value was found to be 36 h. For the same compound, the “time at which p70S6K protein decreased” value in assay [1] worked out at 6 h. In assay [2] (A549 cells, 2 μM, 72 or 96 h), the “decrease of EGFR protein levels” value is reported as ≤ 90%. Besides, in assay [2] (H358, H1975 and H1650 cells, 1 or 2 μM, 48 h), the “reduction of EGFR protein levels” value was 60-70%. The “IC50 ratio of Erlotinib/ATA” value in assay [3] is 13.7. Further, in assay [3] (MTT, 72 h), the concentration for half-maximal inhibition (IC50) – broadly, the concentration at which inhibition is half-maximal – was 1570 ± 100 nM.

Values taken from patent US20240050449A1, “Use of Acetyltanshinone IIA in Preparation of Medicament for Treating Lung Cancer and Medicament for Treating Lung Cancer” (UNIVERSITY OF MACAU, priority 2022, published 2024).
